{"source": "patent US8961930B2", "about": "“Isatin derivatives for use as in vivo imaging agents” (Imperial Innovations Limited, priority 2008, dated 2015)", "key": {"[1]": {"tested_on": "RIF-1 xenograft", "test": "In vivo [^18F]11 biodistribution and PET imaging, RIF-1 xenograft", "set-up": "species or system mice", "conditions": "for 60 min biodistribution, Bone / 60 min biodistribution, Kidney / 60 min biodistribution, L. Intestine / 60 min biodistribution, Liver / 60 min biodistribution, Lung / 60 min biodistribution, Muscle / 60 min biodistribution, S. Intestine / 60 min biodistribution, Spleen / 60 min biodistribution, Tumour: RIF-1", "text": "(§1) In vivo tumour models were established by subcutaneous injection of PEO1/4 (10×10^6 cells, with v/v matrigel, BD Biosciences, Oxford, UK), RIF-1 (5×10^5 cells) and LNM35 (1×10^6 cells) on the back of 6-8 weeks old female nu/nu-BALB/c or male C3H/hej mice (Harlan, Bicester, Oxfordshire, UK). Tumour growth was monitored every two days using electronic callipers, and tumour volume estimated using (π/6)×L×W×D (L=length, W=width and D=depth). All animal work was done by licensed investigators in accordance with the United Kingdom's “Guidance on the Operation of Animals (Scientific Procedures) Act 1986” (HMSO, London, United Kingdom, 1990) and in full compliance with government regulations and guidelines on the welfare of animals in experimental neoplasia.\n(§2) For biodistribution studies, tumour-bearing mice were treated with 10 mg/kg cisplatin or vehicle for 24 h, anesthetized with isofluorane/O2/N2O and injected i.v. in the lateral tail vein with ˜100 μCi [^18F]11 for the indicated time. The different tissues were removed, weighted and placed in counting tubes for immediate Fluorine-18 radioactivity counting.\n(§3) Tumour-bearing mice treated with Cisplatin (10 mg/kg for 24 h) or vehicle were scanned on a dedicated small animal PET scanner (quad-HIDAC; Oxford Positron Systems, Weston-on-the-Green, United Kingdom). Anesthetized animals were placed within a thermostatically controlled bed and positioned prone within the scanner. The bed was calibrated to provide a mouse rectal temperature of ˜37° C. A bolus injection of [^18F]11 (˜100 μCi) was given intravenously (i.v.) via the tail vein cannula and scanning commenced. Dynamic emission scans were acquired in list-mode format over 60 minutes. The acquired data were then sorted into 0.5-mm sinogram bins and 19 time frames (0.5×0.5×0.5 mm voxels; 4×15, 4×60, and 11×300 seconds) for image reconstruction, which was done by filtered back projection using a two-dimensional Hamming filter (cutoff 0.6). The image data-sets obtained were transferred to a SUN workstation (Ultra 10; SUN Microsystems, Santa Clara, Calif.) and visualized using the Analyze software (version 6.0; Biomedical Imaging Resource, Mayo Clinic, Rochester, Minn.). Cumulative images of the dynamic data composed of 0 to 1 minute after injection and 30 to 60 minutes after injection were used for visualization of radiotracer uptake and to define the regions of interest (ROI). The count densities were averaged for each ROI at each of the 19 time points to obtain a time versus radioactivity curve (TAC) for the ROIs. Tumour TAC was normalized to that of heart at each of the time points to obtain the normalized uptake value (NUV). The [^18F]9 data from […] were used as internal input function for normalizing tumour data. […] FRT is a useful variable in that it indicates the proportion of radiotracer delivered to the tumour that is retained. It therefore normalizes tumor [^18F]9 uptake to delivery.\nRIF-1 tumor was treated with vehicle (50% DMSO) or CDDP (10 mg/kg single dose). The [^18F]-derived radioactivity levels at 60 min post radiotracer injection were analysed and expressed as a ratio to that of blood. […] 1.5-fold increase in uptake of [^18F]11 for treated mice over vehicle treated mice. Data are mean±SEM and n=8 mice per group."}, "[2]": {"tested_on": "PEO1 xenograft", "test": "In vivo [^18F]11 biodistribution and PET imaging, PEO1 xenograft", "set-up": "species or system mice", "conditions": "for 60 min biodistribution, Bone / 60 min biodistribution, Kidney / 60 min biodistribution, L. Intestine / 60 min biodistribution, Liver / 60 min biodistribution, Lung / 60 min biodistribution, Muscle / 60 min biodistribution, S. Intestine / 60 min biodistribution, Spleen / 60 min biodistribution, Tumour: PEO1", "text": "as §1, §2, §3"}}, "data": [{"smiles": "O=C1C(=O)N(Cc2cn(CC[18F])nn2)c2ccc(S(=O)(=O)N3CCC[C@H]3COc3ccc(F)cc3F)cc21", "note": "[[^18F]11, (S)-1-((1-(2-Fluoroethyl)-1H-[1,2,3]-triazol-4-yl)methyl)-5-(2(2,4-difluorophenoxymethyl)-pyrrolidine-1-sulfonyl)isatin]", "values": [{"measurement": "60 min biodistribution, Bone", "setting": "[1]; CDDP treated", "value": "1.78 ± 1.72"}, {"measurement": "60 min biodistribution, Bone", "setting": "[1]; Control", "value": "1.06 ± 0.49"}, {"measurement": "PET image: uptake in the tumour", "setting": "[1]; CDDP-treated mouse, RIF-1 xenograft, 30-60 min", "value": "significant uptake"}, {"measurement": "60 min biodistribution, Kidney", "setting": "[1]; CDDP treated", "value": "5.50 ± 2.59"}, {"measurement": "60 min biodistribution, Kidney", "setting": "[1]; Control", "value": "8.49 ± 2.00"}, {"measurement": "60 min biodistribution, L. Intestine", "setting": "[1]; CDDP treated", "value": "2.88 ± 1.52"}, {"measurement": "60 min biodistribution, L. Intestine", "setting": "[1]; Control", "value": "2.66 ± 0.67"}, {"measurement": "60 min biodistribution, Liver", "setting": "[1]; CDDP treated", "value": "10.58 ± 4.64"}, {"measurement": "60 min biodistribution, Liver", "setting": "[1]; Control", "value": "11.36 ± 2.39"}, {"measurement": "60 min biodistribution, Lung", "setting": "[1]; CDDP treated", "value": "3.23 ± 0.43"}, {"measurement": "60 min biodistribution, Lung", "setting": "[1]; Control", "value": "4.47 ± 1.00"}, {"measurement": "60 min biodistribution, Muscle", "setting": "[1]; CDDP treated", "value": "1.09 ± 0.54"}, {"measurement": "60 min biodistribution, Muscle", "setting": "[1]; Control", "value": "1.76 ± 1.33"}, {"measurement": "increase in tumour uptake (ratio to blood), treated over vehicle treated mice", "setting": "[1]; RIF-1 tumour, CDDP 10 mg/kg single dose, 60 min post injection", "value": "~1.5", "unit": "fold"}, {"measurement": "60 min biodistribution, S. Intestine", "setting": "[1]; CDDP treated", "value": "11.08 ± 6.00"}, {"measurement": "60 min biodistribution, S. Intestine", "setting": "[1]; Control", "value": "14.93 ± 12.68"}, {"measurement": "60 min biodistribution, Spleen", "setting": "[1]; CDDP treated", "value": "1.85 ± 0.76"}, {"measurement": "60 min biodistribution, Spleen", "setting": "[1]; Control", "value": "1.85 ± 0.19"}, {"measurement": "60 min biodistribution, Tumour", "setting": "[1]; CDDP treated", "value": "1.31 ± 1.04"}, {"measurement": "60 min biodistribution, Tumour", "setting": "[1]; Control", "value": "0.96 ± 0.10"}, {"measurement": "60 min biodistribution, Bone", "setting": "[2]; CDDP treated", "value": "1.51 ± 1.02"}, {"measurement": "60 min biodistribution, Bone", "setting": "[2]; Control", "value": "0.64 ± 0.09"}, {"measurement": "PET image: uptake in the tumour", "setting": "[2]; CDDP-treated mouse, PEO1 xenograft, 30-60 min", "value": "significant uptake"}, {"measurement": "60 min biodistribution, Kidney", "setting": "[2]; CDDP treated", "value": "8.53 ± 3.64"}, {"measurement": "60 min biodistribution, Kidney", "setting": "[2]; Control", "value": "6.59 ± 1.94"}, {"measurement": "60 min biodistribution, L. Intestine", "setting": "[2]; CDDP treated", "value": "3.24 ± 1.81"}, {"measurement": "60 min biodistribution, L. Intestine", "setting": "[2]; Control", "value": "1.81 ± 0.37"}, {"measurement": "60 min biodistribution, Liver", "setting": "[2]; CDDP treated", "value": "8.20 ± 2.09"}, {"measurement": "60 min biodistribution, Liver", "setting": "[2]; Control", "value": "9.98 ± 2.51"}, {"measurement": "60 min biodistribution, Lung", "setting": "[2]; CDDP treated", "value": "4.90 ± 1.05"}, {"measurement": "60 min biodistribution, Lung", "setting": "[2]; Control", "value": "4.25 ± 0.57"}, {"measurement": "60 min biodistribution, Muscle", "setting": "[2]; CDDP treated", "value": "1.34 ± 0.28"}, {"measurement": "60 min biodistribution, Muscle", "setting": "[2]; Control", "value": "0.98 ± 0.14"}, {"measurement": "uptake in the tumour of CDDP treated vs control mice", "setting": "[2]; PEO1 xenografts, 60 min", "value": "significant increased uptake"}, {"measurement": "60 min biodistribution, S. Intestine", "setting": "[2]; CDDP treated", "value": "9.09 ± 5.82"}, {"measurement": "60 min biodistribution, S. Intestine", "setting": "[2]; Control", "value": "4.27 ± 0.78"}, {"measurement": "60 min biodistribution, Spleen", "setting": "[2]; CDDP treated", "value": "1.65 ± 0.22"}, {"measurement": "60 min biodistribution, Spleen", "setting": "[2]; Control", "value": "1.19 ± 0.26"}, {"measurement": "60 min biodistribution, Tumour", "setting": "[2]; CDDP treated", "value": "2.96 ± 1.25"}, {"measurement": "60 min biodistribution, Tumour", "setting": "[2]; Control", "value": "1.37 ± 0.25"}]}]}
